# Experimental data: US20200270575A1, “Culture System for Expanding Hematopoietic Stem Cells and/or Hematopoietic Progenitor Cells and the Method Thereof, Hematopoietic Stem Cells and Hematopoietic Progenitor Cells” (NEWISH TECHNOLOGY (BEIJING) CO., LTD., priority 2017, published 2020)
# What was measured:
# [1] = tested on: LT-HSC; settings: background, 2014 report; cited from earlier work
# [2] = tested on: immunodeficiency mice; settings: background, 2010 report; cited from earlier work
# [3] = tested on: immunodeficient mice; assay: Transplantation experiment in vivo: reconstitution of human cells in bone marrow and peripheral blood after 4 months; settings: for reconstruction effect of experimental group relative to control group (DMSO): 4 months; for blood cells in human peripheral blood (reconstitution proportion of peripheral blood) / reconstruction proportion of human blood cells in bone marrow (CD45+ cells): 4 months after transplantation
# Description: On the 7th day of the culturing, the transplantation experiment in vivo was carried out at the meantime. The expanded CD34+ cells in the experimental group and the control group were respectively injected into the immunodeficient mice by bone marrow transplantation. Each group contain 8 mice, and each mouse was injected with the total cells expanded from 5000 original CD34+ cells. The reconstitution ratio of human cells in peripheral blood and bone marrow of immunodeficient mice were measured after 4 months. In the experimental group, the reconstruction proportion of human blood cells in bone marrow (CD45+ cells) reached about 50%, and the blood cells in human peripheral blood reached about 5%. In the control group, the reconstruction proportion of human blood cells in bone marrow reached about 20%, and the blood cells in human peripheral blood reached about 1%. The reconstruction effect of the experimental group was about 4 times higher than that of the control group after a general comparison.
# [4] = tested on: cord blood-derived CD34+ cells; assay: In vitro expansion of CD34+CD45RA− cells, 7-day culture of cord blood-derived CD34+ cells; format: cell-based, human
# Description: The material was derived from cord blood waste supplied by the company, and cord blood-derived CD34+ cells were isolated by magnetic bead sorting (MACS) as cultured materials in the following examples.
# CD34+ cells were cultured based on the culture conditions of Table 1. The experimental group (the small chemical molecule is SP600125) and the control group (the small chemical molecule is replaced by DMSO, the volume ratio of DMSO: medium is 1:10000) were placed in the cell incubator at 37° C. with the concentration of 5% carbon dioxide, and half amount of the medium was changed every 2 days.
# On the 7th day of the culturing, the ratio of CD34+CD45RA−cells was measured, and the fold expansion was counted and calculated. The CD34+CD45RA− in the experimental group was about 15 times in the fold expansion, while the CD34+CD45RA− in the control group was about 5 times in fold expansion.
# [5] = Example 4: cells expanded with 5 μM
# [6] = Example 6: cells expanded with 0.5 μM
# [7] = Example 5: cells expanded with 1 μM
# [8] = Example 2: cells expanded with 4 μM
# [9] = Example 3: cells expanded with 2 μM
# [10] = Example 7: cells expanded with 5 μM
compound,measurement,setting,value
Cn1nnc(-c2ccc3c(c2)[nH]c2nc(Cc4ccccc4)nc(NC4CCC(N)CC4)c23)n1 (stereo not drawn) [UM171],maintenance of the function of hematopoietic reconstitution,[1],up to 6 months
CC(C)n1cnc2c(NCCc3ccc(O)cc3)nc(-c3csc4ccccc34)nc21 [SR1],increase of the amount of exogenous hematopoietic cells detected in immunodeficiency mice,[2],17 times
N#C/C(=C1/Nc2ccccc2S1)c1ccnc(NCCc2cccnc2)n1 [AEG-3482],reconstruction effect of experimental group relative to control group (DMSO),"[3]; Example 4: 5 μM, general comparison",about 2.5 times
same,blood cells in human peripheral blood (reconstitution proportion of peripheral blood),[3]; [5],about 3.5%
same,reconstruction proportion of human blood cells in bone marrow (CD45+ cells),[3]; [5],about 35%
same,proliferation amount of CD34+CD45RA− in the experimental group relative to control group (DMSO),"[4]; Example 4: 5 μM, SCF 10, FL 100, TPO 10 ng/ml, LDL 2 μg/ml, day 7",2.3 times
CN(C)C/C=C/C(=O)Nc1cccc(C(=O)Nc2ccc(Nc3nccc(-c4c(-c5ccccc5)nn5ccccc45)n3)cc2)c1 [JNK-IN-11],reconstruction effect of experimental group relative to control group (DMSO),"[3]; Example 6: 0.5 μM, general comparison",about 8 times
same,blood cells in human peripheral blood (reconstitution proportion of peripheral blood),[3]; [6],about 12.5%
same,reconstruction proportion of human blood cells in bone marrow (CD45+ cells),[3]; [6],about 78%
same,proliferation amount of CD34+CD45RA− in the experimental group relative to control group (DMSO),"[4]; Example 6: 0.5 μM, SCF 300, FL 100, TPO 20 ng/ml, LDL 10 μg/ml, day 7",2.8 times
CN(C)C/C=C/C(=O)Nc1cccc(C(=O)Nc2ccc(Nc3nccc(-c4cccnc4)n3)cc2)c1 [JNK-IN-7],reconstruction effect of experimental group relative to control group (DMSO),"[3]; Example 5: 1 μM, general comparison",about 5 times
same,blood cells in human peripheral blood (reconstitution proportion of peripheral blood),[3]; [7],about 8.5%
same,reconstruction proportion of human blood cells in bone marrow (CD45+ cells),[3]; [7],about 58%
same,proliferation amount of CD34+CD45RA− in the experimental group relative to control group (DMSO),"[4]; Example 5: 1 μM, SCF 200, FL 50, TPO 5 ng/ml, LDL 10 μg/ml, day 7",2.5 times
O=C1c2ccccc2-c2n[nH]c3cccc1c23 [SP600125],reconstruction effect of experimental group relative to control group (DMSO),"[3]; Example 1: 4 μM, general comparison",about 4 times
same,blood cells in human peripheral blood (reconstitution proportion of peripheral blood),[3]; Example 1: cells expanded with 4 μM,about 5%
same,reconstruction proportion of human blood cells in bone marrow (CD45+ cells),"[3]; Example 1: cells expanded with 4 μM, cells from 5000 original CD34+ cells per mouse",about 50%
same,reconstruction effect of experimental group relative to control group (DMSO),"[3]; Example 2: 4 μM, general comprehensive comparison",about 6 times
same,blood cells in human peripheral blood (reconstitution proportion of peripheral blood),[3]; [8],about 9%
same,reconstruction proportion of human blood cells in bone marrow (CD45+ cells),[3]; [8],about 70%
same,reconstruction effect of experimental group relative to control group (DMSO),"[3]; Example 3: 2 μM, general comparison",about 4 times
same,blood cells in human peripheral blood (reconstitution proportion of peripheral blood),[3]; [9],about 4%
same,reconstruction proportion of human blood cells in bone marrow (CD45+ cells),[3]; [9],about 40%
same,reconstruction effect of experimental group relative to control group (DMSO),"[3]; Example 7: 5 μM, general comparison",about 5.5 times
same,blood cells in human peripheral blood (reconstitution proportion of peripheral blood),[3]; [10],about 7.5%
same,reconstruction proportion of human blood cells in bone marrow (CD45+ cells),[3]; [10],about 58%
same,fold expansion of CD34+CD45RA− cells at day 7 relative to the primary cells,"[4]; Example 1: 4 μM, SCF 100, FL 100, TPO 50 ng/ml, LDL 10 μg/ml",about 15 times
same,CD34+CD45RA− in the experimental group relative to control group (DMSO),"[4]; Example 2: 4 μM, SCF 50, FL 50, TPO 25 ng/ml, LDL 5 μg/ml, day 7",2.5 times
same,proliferation amount of CD34+CD45RA− in the experimental group relative to control group (DMSO),"[4]; Example 3: 2 μM, SCF 20, FL 50, TPO 20 ng/ml, LDL 5 μg/ml, day 7",2 times
same,proliferation amount of CD34+CD45RA− in the experimental group relative to control group (DMSO),"[4]; Example 7: 5 μM, SCF 500, FL 100, TPO 20 ng/ml, LDL 10 μg/ml, day 7",2.3 times
